According to EPA's ToxRefDB 2:

Key:
mouse [1] = settings: Carcinogenicity; b6c3f1; Oral; Feed; dose end: 103 week; group: systemic; systemic / in life observation / clinical signs / [other] + systemic / pathology microscopic / ovary / atrophy + systemic / pathology …
rat [2] = settings: Sub-acute repeat dose toxicity, fischer, Oral, Feed, dose end: 14 day, group: systemic
mouse [3] = settings: Prenatal developmental toxicity study, cd1, Oral, Feed, dose end: 15 GD
mouse [4] = settings: Subchronic oral toxicity in rodents, b6c3f1, Feed, dose end: 13 week, group: systemic
rabbit = settings: Prenatal developmental toxicity study, new zealand white, Oral, Gavage/Intubation, dose end: 19 GD
mouse [5] = settings: Multigenerational reproductive toxicity study, cd1, Oral, Feed, dose end: 2 generation
rat [6] = settings: Carcinogenicity; fischer; Oral; Feed; dose end: 103 week; group: systemic; systemic / in life observation / clinical signs / muscle fasciculation + systemic / in life observation / clinical signs / skeletal muscle …
mouse [7] = settings: Sub-acute repeat dose toxicity, b6c3f1, Oral, Feed, dose end: 14 day, group: systemic
rat [8] = settings: Subchronic oral toxicity in rodents, fischer, Feed, dose end: 13 week, group: systemic
mouse [9] = settings: Multigenerational reproductive toxicity study, other, Oral, Gavage/Intubation, dose end: 21 PND
rat [10] = settings: Fertility (Segment I), sprague dawley, Oral, Gavage/Intubation, dose end: 0 mating
mouse [11] = settings: Combined chronic toxicity/carcinogenicity, b6c3f1, Oral, Gavage/Intubation, dose end: 2 year, group: systemic
rat [12] = settings: Subchronic oral toxicity in rodents, wistar, Water, dose end: 90 day
rat [13] = settings: Subchronic oral toxicity in rodents, fischer, Gavage/Intubation, dose end: 6 month, group: systemic
mouse [14] = settings: Subchronic oral toxicity in rodents, b6c3f1, Gavage/Intubation, dose end: 6 month, group: systemic
rat [15] = settings: Combined chronic toxicity/carcinogenicity; fischer; Oral; Gavage/Intubation; dose end: 2 year; group: systemic; systemic / in life observation / body weight / body weight + systemic / pathology microscopic / kidney / nephropathy + systemic / pathology …
rat [16] = settings: Multigenerational reproductive toxicity study, sprague dawley, Oral, Gavage/Intubation, dose end: 2 generation
[17] = systemic / in life observation / body weight / body weight gain + systemic / in life observation / clinical signs / [other] + systemic / in …
[18] = systemic / in life observation / clinical signs / lethargy + systemic / in life observation / clinical signs / fur (altered appearance) + …
[19] = group: developmental, systemic / in life observation / body weight / fetal weight
[20] = group: maternal, reproductive / offspring survival early / dead fetuses / dead fetuses
[21] = systemic / in life observation / body weight / body weight + systemic / in life observation / body weight / body weight gain + systemic / in…
[22] = group: developmental, developmental / developmental malformation / general / [other]
[23] = group: maternal, reproductive / reproductive performance / resorptions / resorptions + systemic / in life observation / body weight / body weight + systemic…
[24] = group: offspring, systemic / in life observation / clinical signs / cannibalism
[25] = group: offspring, systemic / in life observation / clinical signs / cannibalism + developmental / offspring survival late / [other] / [other] + systemic / in …
[26] = group: parental, systemic / in life observation / body weight / body weight + systemic / in life observation / clinical signs / cannibalism + systemic / in …
[27] = group: parental, systemic / in life observation / food consumption / food consumption + systemic / in life observation / water consumption / water …
[28] = group: reproductive, reproductive / offspring survival early / birth index / birth index + reproductive / reproductive performance / dystocia / dystocia + …
[29] = group: reproductive, reproductive / reproductive performance / estrous cycle / abnormal
[30] = systemic / in life observation / clinical signs / [other]
[31] = systemic / in life observation / clinical signs / [other] + systemic / in life observation / clinical signs / fur (altered appearance) + …
[32] = group: offspring, developmental / offspring survival late / viability index / viability index
[33] = group: parental, systemic / organ weight / kidney / relative to body weight
[34] = group: parental, systemic / organ weight / kidney / relative to body weight + systemic / in life observation / body weight / body weight
[35] = group: reproductive, reproductive / reproductive performance / fertility / fertility
[36] = group: reproductive, reproductive / reproductive performance / fertility / fertility + reproductive / offspring survival early / live fetuses / live fetuses
[37] = group: maternal, reproductive / reproductive performance / implantations / implantations
[38] = group: parental, systemic / clinical chemistry / luteinizing hormone (lh) / luteinizing hormone (lh) + systemic / clinical chemistry / progesterone / …
[39] = group: parental, systemic / in life observation / body weight / body weight gain
[40] = systemic / pathology microscopic / kidney / nephropathy + systemic / pathology microscopic / kidney / vacuolization cytoplasmic
[41] = systemic / pathology microscopic / kidney / nephropathy + systemic / pathology microscopic / kidney / vacuolization cytoplasmic + systemic…
[42] = group: maternal, reproductive / reproductive performance / fertility / fertility + reproductive / reproductive performance / mating / mating
[43] = group: systemic, systemic / organ weight / epididymis / absolute + systemic / organ weight / prostate / absolute + systemic / organ weight / seminal vesicle…
[44] = group: systemic, systemic / pathology gross / sperm measure / sperm count + systemic / pathology gross / sperm measure / sperm motility
[45] = systemic / in life observation / body weight / body weight + systemic / clinical chemistry / alanine aminotransferase (alt/sgpt) / alanine …
[46] = systemic / pathology microscopic / kidney / vacuolization cytoplasmic + systemic / in life observation / body weight / body weight + …
[47] = group: offspring, developmental / offspring survival late / viability index / viability index + systemic / in life observation / body weight / offspring (pup…
[48] = group: offspring, systemic / in life observation / body weight / offspring (pup) weight + systemic / organ weight / liver / absolute + systemic / organ weight…
[49] = group: parental, systemic / in life observation / body weight / body weight + systemic / in life observation / mortality / mortality + systemic / organ …
[50] = group: parental, systemic / in life observation / mortality / mortality + systemic / organ weight / kidney / absolute + systemic / organ weight / kidney / …
[51] = group: reproductive, reproductive / reproductive performance / fertility / fertility + reproductive / offspring survival early / litter size / litter size + …
[52] = group: reproductive, reproductive / reproductive performance / fertility / fertility + reproductive / reproductive performance / implantations / implantations + …

NC(=O)N/N=C/c1ccc([N+](=O)[O-])o1 [Nitrofurazone] gave an LEL (mouse [1]) of 14 mg/kg/day, an LOAEL (mouse [1]) of 14 mg/kg/day and an NEL (mouse [1]) of under 14 mg/kg/day. The NOAEL (mouse [1]) was under 14 mg/kg/day, the LOAEL (rat [2]; [17]) was 125 mg/kg/day and the NOAEL (rat [2]; [17]) was 62.5 mg/kg/day. For the same compound, the LEL (rat [2]; [18]) was 31.5 mg/kg/day, the NEL (rat [2]; [18]) was under 31.5 mg/kg/day and the LEL (mouse [3]; [19]) was 81.7 mg/kg/day. It also gave an LOAEL (mouse [3]; [19]) of over 81.7 mg/kg/day, an NEL (mouse [3]; [19]) of 41.2 mg/kg/day and an NOAEL (mouse [3]; [19]) of at least 81.7 mg/kg/day. It also gave an LEL (mouse [3]; [20]) of 41.2 mg/kg/day, an LOAEL (mouse [3]; [20]) of 41.2 mg/kg/day and an NEL (mouse [3]; [20]) of 13.6 mg/kg/day. The NOAEL (mouse [3]; [20]) was 13.6 mg/kg/day, the LOAEL (mouse [4]; [21]) was over 188 mg/kg/day and the NEL (mouse [4]; [21]) was 46.5 mg/kg/day. For the same compound, the NOAEL (mouse [4]; [21]) was at least 188 mg/kg/day, the LEL (mouse [4]; systemic / in life observation / clinical signs / [other] + systemic / in life observation / clinical signs / excitation + systemic / in …) was 93 mg/kg/day and the LEL (rabbit; [22]) was 20 mg/kg/day. The LOAEL (rabbit; [22]) was 20 mg/kg/day, the NEL (rabbit; [22]) was 15 mg/kg/day and the NOAEL (rabbit; [22]) was 15 mg/kg/day. For the same compound, the LOAEL (rabbit; group: maternal, reproductive / reproductive performance / resorptions / resorptions) was 20 mg/kg/day, the NEL (rabbit; [23]) was 5 mg/kg/day and the NOAEL (rabbit; [23]) was 15 mg/kg/day. For the same compound, the LEL (rabbit; group: maternal, systemic / in life observation / body weight / body weight) was 10 mg/kg/day, the LEL (mouse [5]; [24]) was 15 mg/kg/day and the NEL (mouse [5]; [24]) was under 15 mg/kg/day. For the same compound, the LOAEL (mouse [5]; [25]) was over 112 mg/kg/day, the NOAEL (mouse [5]; [25]) was at least 112 mg/kg/day and the LOAEL (mouse [5]; [26]) was over 112 mg/kg/day. It also gave an NOAEL (mouse [5]; [26]) of at least 112 mg/kg/day, an LEL (mouse [5]; [27]) of 15 mg/kg/day and an NEL (mouse [5]; [27]) of under 15 mg/kg/day. For the same compound, the LOAEL (mouse [5]; [28]) was over 112 mg/kg/day, the NOAEL (mouse [5]; [28]) was at least 112 mg/kg/day and the LEL (mouse [5]; [29]) was 15 mg/kg/day. It also gave an NEL (mouse [5]; [29]) of under 15 mg/kg/day, an LEL (rat [6]) of 11 mg/kg/day and an LOAEL (rat [6]) of 11 mg/kg/day. It also gave an NEL (rat [6]) of under 11 mg/kg/day, an NOAEL (rat [6]) of under 11 mg/kg/day and an LOAEL (mouse [7]; [30]) of 94.5 mg/kg/day. It also gave an NOAEL (mouse [7]; [30]) of under 94.5 mg/kg/day, an LEL (mouse [7]; [31]) of 94.5 mg/kg/day and an NEL (mouse [7]; [31]) of under 94.5 mg/kg/day. For the same compound, the NEL (rat [8]; systemic / organ weight / liver / relative to body weight + systemic / in life observation / body weight / body weight + systemic / in life …) was 7.5 mg/kg/day, the LOAEL (rat [8]; systemic / pathology microscopic / testes / degeneration) was 15.5 mg/kg/day and the NOAEL (rat [8]; systemic / pathology microscopic / testes / degeneration + systemic / in life observation / body weight / body weight + systemic / in life …) was 7.5 mg/kg/day. The LEL (rat [8]; systemic / pathology microscopic / testes / degeneration + systemic / organ weight / liver / relative to body weight) was 15.5 mg/kg/day.

[Cl][Hg][Cl] [Mercuric chloride] was tested, and the LEL (mouse [9]; [32]) was 1 mg/kg/day, the LOAEL (mouse [9]; [32]) was over 1 mg/kg/day and the NEL (mouse [9]; [32]) was 0.5 mg/kg/day. It also gave an NOAEL (mouse [9]; [32]) of at least 1 mg/kg/day, an LEL (mouse [9]; [33]) of 0.25 mg/kg/day and an NEL (mouse [9]; [33]) of under 0.25 mg/kg/day. It also gave an LOAEL (mouse [9]; [34]) of over 1 mg/kg/day, an NOAEL (mouse [9]; [34]) of at least 1 mg/kg/day and an LEL (mouse [9]; [35]) of 0.25 mg/kg/day. It also gave an NEL (mouse [9]; [35]) of under 0.25 mg/kg/day, an LOAEL (mouse [9]; [36]) of over 1 mg/kg/day and an NOAEL (mouse [9]; [36]) of at least 1 mg/kg/day. The LEL (rat [10]; [37]) was 2 mg/kg/day, the LOAEL (rat [10]; [37]) was over 2 mg/kg/day and the NEL (rat [10]; [37]) was 1 mg/kg/day. It also gave an NOAEL (rat [10]; [37]) of at least 2 mg/kg/day, an LOAEL (rat [10]; [38]) of over 2 mg/kg/day and an NOAEL (rat [10]; [38]) of at least 2 mg/kg/day. The LEL (rat [10]; [39]) was 1 mg/kg/day, the NEL (rat [10]; [39]) was under 1 mg/kg/day and the LOAEL (mouse [11]; [40]) was 5 mg/kg/day. It also gave an NOAEL (mouse [11]; [40]) of under 5 mg/kg/day, an LEL (mouse [11]; [41]) of 5 mg/kg/day and an NEL (mouse [11]; [41]) of under 5 mg/kg/day. For the same compound, the LEL (rat [12]; [42]) was 5 mg/kg/day, the LOAEL (rat [12]; [42]) was over 5 mg/kg/day and the NEL (rat [12]; [42]) was 2.5 mg/kg/day. The NOAEL (rat [12]; [42]) was at least 5 mg/kg/day, the LOAEL (rat [12]; [43]) was over 5 mg/kg/day and the NOAEL (rat [12]; [43]) was at least 5 mg/kg/day. The LEL (rat [12]; [44]) was 2.5 mg/kg/day, the NEL (rat [12]; [44]) was under 2.5 mg/kg/day and the LEL (rat [13]; [45]) was 0.312 mg/kg/day. The NEL (rat [13]; [45]) was under 0.312 mg/kg/day, the NOAEL (rat [13]; systemic / in life observation / body weight / body weight + systemic / pathology microscopic / kidney / nephropathy + systemic / organ …) was 2.5 mg/kg/day and the LOAEL (rat [13]; systemic / pathology microscopic / kidney / nephropathy) was 5 mg/kg/day. It also gave an LOAEL (mouse [14]; systemic / pathology microscopic / kidney / vacuolization cytoplasmic) of 10 mg/kg/day, an NEL (mouse [14]; [46]) of 2.5 mg/kg/day and an NOAEL (mouse [14]; [46]) of 5 mg/kg/day. It also gave an LEL (mouse [14]; systemic / pathology microscopic / kidney / vacuolization cytoplasmic + systemic / organ weight / kidney / absolute) of 5 mg/kg/day, an LEL (rat [15]) of 2.5 mg/kg/day and an LOAEL (rat [15]) of 2.5 mg/kg/day. For the same compound, the NEL (rat [15]) was under 2.5 mg/kg/day, the NOAEL (rat [15]) was under 2.5 mg/kg/day and the LOAEL (rat [16]; [47]) was over 2.5 mg/kg/day. The NOAEL (rat [16]; [47]) was at least 2.5 mg/kg/day, the LEL (rat [16]; [48]) was 0.5 mg/kg/day and the NEL (rat [16]; [48]) was under 0.5 mg/kg/day. It also gave an LOAEL (rat [16]; [49]) of over 2.5 mg/kg/day, an NOAEL (rat [16]; [49]) of at least 2.5 mg/kg/day and an LEL (rat [16]; [50]) of 0.5 mg/kg/day. For the same compound, the NEL (rat [16]; [50]) was under 0.5 mg/kg/day, the LEL (rat [16]; [51]) was 0.5 mg/kg/day and the NEL (rat [16]; [51]) was under 0.5 mg/kg/day. The LOAEL (rat [16]; [52]) was over 2.5 mg/kg/day and the NOAEL (rat [16]; [52]) was at least 2.5 mg/kg/day.
